Source: patent publication US20040077709A1, “Neuronal death inhibitors” (DAIICHI PHARMACEUTICAL CO., LTD., priority 1999, published 2004)

Columns and labels:
male mice = settings: oral; cited from earlier work
EL mice (EL[s]) = experiment: DNA fragmentation (TdT labeling) in brain sections of EL mice after oral nefiracetam; type: in vivo; settings: EL[s] mice aged 30 weeks, 10 mg/kg oral once a day
From the text: Employed were three groups each constituting 6 mice aged 30 weeks, that is, EL mice (EL[s]) given an epileptogenic stimulus once a week and thus having a low threshold, EL mice (EL[ns]) not given an epileptogenic stimulus and free from epileptic seizure at least during observation and DDY mice as a control. Each group was compared with that consisting of 40 to 50 week old mice in order to omit the influence of aging. A section of 10 μm was fixed to a gelatin-coated sliding glass in a cryostat, followed by permeabilization with 0.1% sodium citrate and 0.1% Triton X-100 at 4° C. for 5 minutes. DNA fragmentation was detected by polymerizing a fluorescein-labeled nucleotide with the 3′-OH ends of the cleaved DNA by using terminal transferase (TdT). Reaction with an anti-fluorescein antibody conjugated with peroxidase (PD) or alkali phosphatase (AP) developed color, thereby enabling detection by an optical microscope. As a negative control, TdT(−) and as a positive control, a sample treated with DNAaseI were employed. Nefiracetam was orally administered to the test group (aged 30 weeks, EL[s]) once (10 mg/kg) a day. While thus controlling the occurrence of epileptic seizure, a relationship between the nefiracetam administration terms (1, 3, 5 and 7 days) and appearing frequency of DNA fragmentation was observed.
As a result, DNA fragmentation was detected from neither DDY mice aged 30 weeks (adult) nor those aged 40 weeks (having an influence of aging) which served as a negative control. In the EL mice (EL[s]) having epileptic seizure, whether they were aged 30 weeks or 40 weeks, DNA fragmentation was recognized from their hippocampus and parietal cortex. In the EL mice (El[ns]) free from epileptic seizure, whether they were aged 30 weeks or 40 weeks, DNA fragmentation was recognized in only a narrower region at a lower frequency than the EL[s]. In their hippocampus, no DNA fragmentation was recognized.
EL mice serve as a model of the region-specific secondary generalized epilepsy. Although having no severe tissue injury, they are known for accelerated production of free radicals in the hippocampus and parietal cortex constituting a partial complex seizure, a rise in NO and site-specific expression of the immediately early genes (c-fos, zif) during an epileptogenicity acquiring procedure.

[1] = five days after the administration, FIG. 2
[2] = single administration (one day), FIG. 1

SMILES: Cc1cccc(C)c1NC(=O)CN1CCCC1=O [nefiracetam, 2-oxo-1-pyrrolidinylacetic acid 2,6-dimethylanilide]
- acute toxicity (male mice): 2,005 mg/kg
- DNA fragmentation in the hippocampus (EL mice (EL[s]); [1]): disappeared
- DNA fragmentation in the parietal cortex (EL mice (EL[s]); [1]): no change
- DNA fragmentation in the hippocampus (EL mice (EL[s]); [2]): recognized
- DNA fragmentation in the parietal cortex (EL mice (EL[s]); [2]): recognized
